Assay results: patent publication US7910622B2, “Modulation of bacterial quorum sensing with synthetic ligands” (Wisconsin Alumni Research Foundation, priority 2007, dated 2011)
Several values for one entry are separate records, joined by “and”; a condition that tells them apart may be missing. Equal entries are not always repeated.

Experiments:
[1] = molecular target: T1, LuxR (Aliivibrio fischeri, UniProt P35327); assay: cell-based; set-up: species or system Vibrio fischeri; conditions: for EC50: LuxR EC50, V. fischeri ES114 (Δ-luxI); for Activation (%): V. fischeri-LuxR, Library C primary agonism screen; for activation at 200 µM: read-out: V. fischeri-LuxR Activation [%], 200 μM ligand
T1 construct: a Δ-luxI derivative of V. fischeri ES114, in which the native lux operon behaves as the bioluminescent reporter; endogenous in cells; host or cells: V. fischeri ES114 (Δ-luxI)
Method in brief: (§1)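 Whole-cell luminescence reporter in V. fischeri ES114 (WT, Δ-luxI or Δ-luxR) or E. coli, overnight cultures diluted 1:10 and grown with compound at RT (E. coli 30° C) to OD600 0.35-0.4 (4-6 h). Luminescence normalized to cell density, triplicates; EC50/IC50 from sigmoidal fit.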

[2] = molecular target: T2, LuxR (Aliivibrio fischeri, UniProt P12746); assay: LuxR luminescence antagonism and agonism assays in E. coli JM109 (pSB401); format: cell-based, Vibrio fischeri; conditions: EC50 of autoinducer in E. coli JM109 (pSB401)
T2 construct: expressed in transfected cells; host or cells: E. coli JM109 (pSB401)
Procedure: Competitive inhibition assays were performed in the presence of both OHHL and PHLs 11 (at a 1:1 ratio), while agonism assays were performed with PHLs alone.
Luminescence assays. For agonism assays, an appropriate amount of AHL stock solution was added into a 96-well plate. […] A 200-μL portion of the diluted culture was added to each well of the plate. […] Luminescence was measured using a multilabel plate reader and normalized to cell density. […] All assays were performed in triplicate. Graphpad Prism software was used to calculate IC50 and EC50 values.
E. coli assay procedures. […] An overnight culture of E. coli JM109 (pSB401) was diluted 1:10 with LB medium (containing 10 μg/mL tetracycline). A 200-μL portion of the diluted culture was added to each well of the plate. Plates were grown at 30° C. with shaking (200 rpm) until the OD600=0.35-0.4 (6-8 h). Luminescence then was measured and normalized to cell density per well. […] All assays were performed in triplicate.

[3] = molecular target: T3, TraR (Agrobacterium tumefaciens, UniProt P33905); assay: cell-based; conditions: for A. tumefaciens-TraR Activation [%]: 10 μM ligand; for Activation (%) / Inhibition (%): A. tumefaciens-TraR; for Activation (%): Library C primary agonism screen; for Inhibition (%): Library C primary antagonism screen
T3 construct: These strains lack their AHL synthase (I) genes, but retain their native R genes; endogenous in cells; host or cells: A. tumefaciens WCF47 (Δ-traI) with PtraI-lacZ plasmid pCF372

[4] = test system: elastase B production; assay: microbe, parasite or virus in culture; format: cell-based, Pseudomonas aeruginosa; conditions: P. aeruginosa PAO1; 200 μM
Procedure: Elastase B production assay in P. aeruginosa. Elastase B activity in P. aeruginosa was measured according to a previously reported method, with the following modifications. P. aeruginosa PAO1 was grown overnight in LB media at 37° C., after which it was diluted to an OD600=0.1. Portions (2 mL) of this culture was added to test tubes containing synthetic compounds to give final concentrations of 20 μM or 200 μM and incubated for 12-14 h at 37° C. with 200 rpm shaking. The OD600 was measured for each tube, after which the contents of the tubes were filtered through a […] Whatman filter to remove all cellular matter. A 100 μL-aliquot of the supernatant was added to 900 μL of an Elastin Congo Red Solution (5 mg of Elastin Congo red substrate per 1 mL of 100 mM Tris-HCl, 1 mM CaCl2 (pH 7.2)) and incubated for 12 h at 37° C. with 250 rpm shaking. The contents of these tubes were then filtered in order to remove unreacted Elastin Congo red substrate. Elastase B activity was then calculated (normalized) by dividing the absorbance of the cleaved Congo red (OD492) by the cell density (OD600 of the cells before first filtration).
Elastase B production assay in P. aeruginosa. Elastase B activity in P. aeruginosa was measured according to a previously reported method, with the following modifications. P. aeruginosa PAO1 was grown overnight at 37° C. and then diluted 1:10 with fresh LB medium. Portions (2 mL) of this culture were added to test tubes containing synthetic compounds to give final compound concentrations of 20 μM or 200 μM. The tubes were incubated for 12-14 h at 37° C. The OD600 was measured for each tube, after which the contents of the tubes were filtered through a 0.2 μm Whatman filter to remove all cellular matter. A 100 μL aliquot of the supernatant was added to 900 μL of an elastin-Congo red solution (5 mg of elastin-Congo red substrate per 1 mL of buffer (100 mM Tris-HCl, 1 mM CaCl2, pH 7.2)) and incubated for 12 h at 37° C. with 250 rpm shaking. The contents of these tubes were then filtered in order to remove unreacted elastin-Congo red substrate, and the supernatant containing cleaved Congo red was isolated. A 200 μL aliquot of the supernatant was added to a 96-well multititer plate, and the OD492 was measured. Elastase B activity was calculated by dividing the absorbance of the cleaved Congo red solution (OD492) by the cell density (OD600 of the cells before first filtration).

[5] = molecular target: T4, LasR (Pseudomonas aeruginosa, UniProt P25084); assay: cell-based; format: cell-based; conditions: for Inhibition (%): E. coli-LasR, Library C primary antagonism screen
T4 construct: expressed in transfected cells; host or cells: E. coli DH5α (pJN105L pSC11), arabinose-induced
Method in brief: (§2)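 E. coli DH5α carrying pJN105L/pSC11 grown to OD600 0.3, LasR expression induced with arabinose (4 mg/mL), then incubated with AHLs at 37 °C to OD600 0.45. LasR activity read by β-galactosidase reporter assay; IC50/EC50 from sigmoidal dose-response fits.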

[6] = molecular target: T4, LasR; assay: cell-based; conditions: for Activation (%): E. coli-LasR, Library C primary agonism screen
Method in brief: as §2

[7] = molecular target: T1, LuxR; assay: cell-based; format: cell-based, Vibrio fischeri; conditions: for Inhibition (%): V. fischeri-LuxR, Library C primary antagonism screen; for V. fischeri-LuxR Inhibition [%]: 5 μM synthetic ligand against 5 μM OHHL, V. fischeri ES114 (Δ-luxI), normalized to OHHL
Method in brief: as §1

[8] = molecular target: QscR:DNA binding (PA1897 promoter) (Pseudomonas aeruginosa, UniProt G3XD77); conditions: EMSA
Description: We sought to obtain further insights into the mechanism of QscR modulation by non-native AHLs. […] We therefore performed electromobility shift assays (EMSA) on purified QscR and radiolabeled PA1897 promoter in the presence of selected QscR antagonists and 1.

[9] = test system: wild-type V. fischeri ES114; assay: Luminescence dose response in wild-type V. fischeri ES114; format: cell-based, Vibrio fischeri; conditions: relative to OHHL
Procedure: (§3) Vibrio fischeri assay procedures. For primary agonism assays, an appropriate amount of concentrated control or PHL (11) stock solution, to give a final concentration of 200 μM, was added to wells in a 96-well multititer plate. An overnight culture of V. fischeri ES114 (WT, Δ-luxI or Δ-luxR) was diluted 1:10 with LBS medium. A-200 μL portion of the diluted culture was added to each well of the plate. Plates were grown at RT with shaking (200 rpm) until the OD600=0.35-0.4 (4-6 h). Luminescence then was measured and normalized to cell density per well. […] Similar methods were used for dose response assays, except the concentrations of controls and PHLs 11 used were between 0.02 and 2×10^5 nM. All assays were performed in triplicate. IC50 and EC50 values were calculated using GraphPad Prism software using a sigmoidal curve fit.

[10] = test system: V. fischeri ES114 (Δ-luxR); assay: Luminescence assay in Δ-luxR derivative of V. fischeri ES114; format: cell-based, Vibrio fischeri
Procedure: as §3

[11] = test system: Euprymna scolopes squid; assay: Preliminary experiments in squid / invertebrate model systems (tolerance, activity in vivo)
[12] = A. tumefaciens WCF47 (pCF372), normalized to OOHL
[13] = V. fischeri ES114 (Δ-luxI), normalized to OHHL

T1 sequence (P35327 whole entry): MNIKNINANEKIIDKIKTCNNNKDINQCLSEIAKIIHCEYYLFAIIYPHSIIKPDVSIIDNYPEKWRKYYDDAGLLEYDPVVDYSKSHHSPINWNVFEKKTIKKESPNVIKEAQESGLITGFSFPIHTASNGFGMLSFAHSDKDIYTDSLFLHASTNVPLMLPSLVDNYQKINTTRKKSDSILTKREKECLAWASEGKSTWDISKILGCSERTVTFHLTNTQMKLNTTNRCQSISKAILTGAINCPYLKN
T4 sequence (P25084 whole entry): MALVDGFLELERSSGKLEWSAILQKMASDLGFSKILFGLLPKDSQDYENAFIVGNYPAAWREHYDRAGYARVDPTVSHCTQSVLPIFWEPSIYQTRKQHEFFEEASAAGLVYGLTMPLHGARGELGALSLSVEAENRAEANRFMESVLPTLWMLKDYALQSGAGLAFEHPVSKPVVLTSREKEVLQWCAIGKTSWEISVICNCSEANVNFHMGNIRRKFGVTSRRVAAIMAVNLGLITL
T3 sequence (P33905 whole entry): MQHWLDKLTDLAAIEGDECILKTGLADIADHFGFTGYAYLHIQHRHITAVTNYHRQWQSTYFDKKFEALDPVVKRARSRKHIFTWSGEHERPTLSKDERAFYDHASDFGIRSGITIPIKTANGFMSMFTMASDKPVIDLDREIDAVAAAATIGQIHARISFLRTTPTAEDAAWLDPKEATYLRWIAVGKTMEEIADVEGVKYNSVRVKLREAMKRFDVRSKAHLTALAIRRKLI
T2 sequence (P12746 whole entry): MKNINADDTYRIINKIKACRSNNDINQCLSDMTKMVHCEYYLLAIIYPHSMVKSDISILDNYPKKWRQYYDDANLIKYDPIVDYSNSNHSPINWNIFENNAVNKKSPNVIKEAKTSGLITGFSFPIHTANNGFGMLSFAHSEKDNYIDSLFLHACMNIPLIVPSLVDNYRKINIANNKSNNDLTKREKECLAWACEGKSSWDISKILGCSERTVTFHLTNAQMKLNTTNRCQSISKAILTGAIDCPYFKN
Sequence of QscR:DNA binding (PA1897 promoter) (G3XD77 entry or part of it): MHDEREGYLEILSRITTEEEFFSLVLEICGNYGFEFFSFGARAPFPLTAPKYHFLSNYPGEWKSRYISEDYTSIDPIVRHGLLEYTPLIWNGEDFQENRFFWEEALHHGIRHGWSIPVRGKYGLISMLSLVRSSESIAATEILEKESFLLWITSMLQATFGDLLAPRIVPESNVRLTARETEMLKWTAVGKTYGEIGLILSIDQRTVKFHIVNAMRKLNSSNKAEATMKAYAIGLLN

**Q.** Which results are given for `CCCC(=O)CC(=O)N[C@H]1CCOC1=O` [compound 3, N-(3-oxo-hexanoyl)-L-homoserine lactone, reference compound]?
**A.** EC50 [1]: 3000 nM and ~5000 nM; EC50 [2]: ~10 nM and 20 nM

**Q.** Which results are given for `O=C(CCCc1c[nH]c2ccccc12)N[C@H]1CCOC1=O` [compound 9, indole AHL, reference compound]?
**A.** A. tumefaciens-TraR Activation [%] [3, 12]: 0%; elastase B production inhibition [4]: 66%

**Q.** Which “Activation (%)” value [3] does the source give for `CCOc1ccc(CC(=O)N[C@H]2CCOC2=O)cc1` [C25] here?
**A.** The value was 0%.

**Q.** And the “Inhibition (%)” value [3]?
**A.** Its value is 35%.

**Q.** And the “Inhibition (%)” value [5]?
**A.** Its value is 15%.

**Q.** And the “Activation (%)” value [6]?
**A.** The value was 0%.

**Q.** And the “Inhibition (%)” value [7]?
**A.** The value was 55%.

**Q.** What about the “Activation (%)” value [1] of the same compound?
**A.** Its value is 2%.

**Q.** What about the “inhibition of OdDHL-dependent QscR:DNA binding” value [8] of the same compound?
**A.** The value was “capable of inhibiting OdDHL (1)-dependent QscR:DNA binding”.

**Q.** 4-amino PHL [C21] was tested. Which “Activation (%)” value [3] did it give?
**A.** Its value is 0%.

**Q.** What about the “Inhibition (%)” value [3] of the same compound?
**A.** The value was 5%.

**Q.** What about the “Inhibition (%)” value [5] of the same compound?
**A.** Its value is 8%.

**Q.** What about the “Activation (%)” value [6] of the same compound?
**A.** Its value is 0%.

**Q.** What about the “Inhibition (%)” value [7] of the same compound?
**A.** Its value is 12%.

**Q.** What about the “Activation (%)” value [1] of the same compound?
**A.** The value was 3%.

**Q.** For `O=C(Cc1ccc(C(F)(F)F)cc1)N[C@H]1CCOC1=O` [B23, 4-trifluoromethyl PHL], which activation at 10 µM ([3]; read-out: A. tumefaciens-TraR Activation [%]) is on record?
**A.** The activation at 10 µM was 2%.

**Q.** And the inhibition at 10 µM ([3]; read-out: A. tumefaciens-TraR Inhibition [%], 10 μM synthetic ligand against 100 nM OOHL, A. tumefaciens WCF47 (pCF372), normalized to OOHL)?
**A.** Its inhibition at 10 µM is 92%.

**Q.** What about the inhibition at 5 µM ([5]; read-out: E. coli-LasR Inhibition [%], 5 μM synthetic ligand against 7.5 nM OdDHL, E. coli DH5α (pJN105L pSC11), normalized to OdDHL) of the same compound?
**A.** The inhibition at 5 µM was 26%.

**Q.** What about the activation at 5 µM ([6]; read-out: E. coli-LasR Activation [%], 5 μM ligand, E. coli DH5α (pJN105L pSC11), normalized to OdDHL) of the same compound?
**A.** The activation at 5 µM was 0%.

**Q.** And the “V. fischeri-LuxR Inhibition [%]” value [7]?
**A.** The value was 78%.

**Q.** What about the IC50 ([7]; determined against 5 μM OHHL, read-out: LuxR IC50) of the same compound?
**A.** Its IC50 is 610 nM.

**Q.** And the activation at 200 µM [1, 13]?
**A.** The activation at 200 µM was 3%.

**Q.** Which results are given for `O=C(CC1CCCC1)N[C@H]1CCOC1=O` [B12]?
**A.** A. tumefaciens-TraR Activation [%] [3, 12]: 0%; A. tumefaciens-TraR Inhibition [%] ([3]; 10 μM synthetic ligand against 100 nM OOHL, A. tumefaciens WCF47 (pCF372), normalized to OOHL): 11%; E. coli-LasR Inhibition [%] ([5]; 5 μM synthetic ligand against 7.5 nM OdDHL, E. coli DH5α (pJN105L pSC11), normalized to OdDHL): 19%; E. coli-LasR Activation [%] ([6]; 5 μM ligand, E. coli DH5α (pJN105L pSC11), normalized to OdDHL): 0%; V. fischeri-LuxR Inhibition [%] [7]: 57%; V. fischeri-LuxR Activation [%] ([1]; 200 μM ligand, V. fischeri ES114 (Δ-luxI), normalized to OHHL): 3%

**Q.** `O=C(Cc1ccc(C(F)(F)F)cc1)N[C@H]1CCOC1=O` [C20, 4-trifluoromethyl PHL] was tested. Which “Activation (%)” value [3] did it give?
**A.** Its value is 2%.

**Q.** What about the “Inhibition (%)” value [3] of the same compound?
**A.** Its value is 92%.

**Q.** What about the IC50 ([3]; determined against 100 nM OOHL, read-out: TraR IC50) of the same compound?
**A.** The IC50 was 810 nM.

**Q.** And the “Inhibition (%)” value [5]?
**A.** Its value is 26%.

**Q.** And the “Activation (%)” value [6]?
**A.** Its value is 0%.

**Q.** What about the “Inhibition (%)” value [7] of the same compound?
**A.** The value was 78%.

**Q.** What about the “Activation (%)” value [1] of the same compound?
**A.** Its value is 3%.

**Q.** For `O=C(Cc1cccc([N+](=O)[O-])c1)N[C@H]1CCOC1=O` [11n, N-(3-nitro-phenylacetanoyl)-L-homoserine lactone], which “V. fischeri-LuxR Inhibition [%]” value [7] is on record?
**A.** Its value is “no inhibitory activity”.

**Q.** What about the “EC50 lower / activity higher relative to OHHL” value ([1]; LuxR) of the same compound?
**A.** The value was 10 fold.

**Q.** What about the EC50 [1] of the same compound?
**A.** Its EC50 is 300 nM.

**Q.** And the “luminescence induced higher than native ligand OHHL” value ([1]; primary agonism assay, 200 μM, same concentration as OHHL)?
**A.** Its value is 29%.

**Q.** What about the activation at 200 µM [1, 13] of the same compound?
**A.** Its activation at 200 µM is at least 60%.

**Q.** What about the “activity in wild-type V. fischeri” value [9] of the same compound?
**A.** Its value is “similarly heightened activity”.

**Q.** And the “luminescence / activity in Δ-luxR derivative of V. fischeri ES114” value [10]?
**A.** Its value is “Neither 11n nor OHHL induced any detectable luminescence”.

**Q.** What about the “activity / modulation of quorum sensing in vivo” value [11] of the same compound?
**A.** Its value is “active in vivo”.

**Q.** And the “tolerance in squid / invertebrate model systems” value [11]?
**A.** Its value is “well tolerated”.
